This note sets out measurements from patent US10508109B2 (priority 2015, dated 2019).

Molecules are shown by their SMILES. Where a name gives a salt, the structure may show the parent alone. Read-outs that look alike come from different tables or passages of the source.

Assay [1] relates to A549. The experiment in a line: Cell-based assay, anti-proliferative activity (Cell Counting Kit-8, 72 hours). The note with it: Homo sapiens, read-out: IC50 (μM) A549. Summed up: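 Following seeding into 96-well microtiter plates, the cells receive candidate inhibitors, and cellular growth is quantified at the end of the exposure period. An IC50 is computed for each compound.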
(Tetrazolium dyes change colour on reduction, which living cells bring about.)

Assay [2] concerns CCD-18Co. The assay is described as above. The note with it: Homo sapiens, read-out: IC50 (μM) CCD-18Co. In outline: (§1)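 IC50 values reflect cell growth measured by Cell Counting Kit-8 following 72 hours of inhibitor exposure across a twofold dilution range up to 100 micro-M.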
Assay [3] deals with HCT-116. Described as above. To be noted: Homo sapiens, read-out: IC50 (μM) HCT-116. Summed up: as §1
Assay [4] deals with HFL1. Described as above. The note with it: Homo sapiens, read-out: IC50 (μM) HFL1. Summed up:
as §1

For assay [5], the system named is PC14. The description is as above. To be noted: Homo sapiens, read-out: IC50 (μM) PC14. In outline: as §1
Assay [6] deals with SUV39H2 (Homo sapiens (Human), UniProt Q9H5I1). To be noted: read-out: IC50 (μM) Suv 39H2 assay.
SUV39H2, sequence (Q9H5I1 whole entry): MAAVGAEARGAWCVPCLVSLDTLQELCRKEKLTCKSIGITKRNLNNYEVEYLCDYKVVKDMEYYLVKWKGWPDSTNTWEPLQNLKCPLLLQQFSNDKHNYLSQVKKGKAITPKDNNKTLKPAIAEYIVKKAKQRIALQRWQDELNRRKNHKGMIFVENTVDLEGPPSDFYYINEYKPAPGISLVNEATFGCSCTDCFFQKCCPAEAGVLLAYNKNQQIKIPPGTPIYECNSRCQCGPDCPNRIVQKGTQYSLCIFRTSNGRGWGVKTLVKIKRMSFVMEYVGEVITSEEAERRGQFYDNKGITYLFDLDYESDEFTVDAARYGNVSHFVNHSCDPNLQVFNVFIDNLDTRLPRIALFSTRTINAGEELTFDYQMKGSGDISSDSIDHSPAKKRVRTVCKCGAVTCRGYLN
Where [7] appears, read: A549 cells, Cell Counting Kit-8, 72 hours.
[8] abbreviates: CCD-18Co cells, Cell Counting Kit-8, 72 hours.
Where [9] appears, read: HCT-116 cells, Cell Counting Kit-8, 72 hours.
Setting [10] is: HFL1 cells, Cell Counting Kit-8, 72 hours.
[11] abbreviates: PC-14, PC14 cells, Cell Counting Kit-8, 72 hours.
The mark [12] stands for this setting: A549 cells, 72 hours, Cell Counting Kit-8.
The mark [13] stands for this setting: CCD-18Co cells, 72 hours, Cell Counting Kit-8.
The mark [14] stands for this setting: HCT-116 cells, 72 hours, Cell Counting Kit-8.
[15] abbreviates: HFL1 cells, 72 hours, Cell Counting Kit-8.
[16] abbreviates: PC-14, PC14 cells, 72 hours, Cell Counting Kit-8.

The IC50 is the concentration that inhibits the measured activity by half. Take `COc1cc(OCCCN(C)C)c(-c2cn3ccc(N4CCN(S(=O)(=O)C(C)C)CC4)cc3n2)cc1Cl` [Example 197, 3-(4-Chloro-2-(7-(4-(isopropylsulfonyl)piperazin-1-yl)imidazo[1,2-a]pyridin-2-yl)-5-methoxyphenoxy)-N,N-dimethylpropan-1-amine]: the IC50 in assay [1] (setting [7]) is 3.4 µM; in assay [2] (setting [8]), 2.9 µM; in assay [3] (setting [9]) it was 3.8 µM; in assay [4] (setting [10]), 2.9 µM; in assay [5] (setting [11]), 2.3 µM; in assay [6] (enzyme assay), 0.0144 µM.

As to `COc1cc(OC)c(-c2cn3ccc(N4CCN(S(=O)(=O)Cc5ccccc5)CC4)cc3n2)cc1Cl` [Example 179, 7-[4-(benzylsulfonyl)piperazin-1-yl]-2-(5-chloro-2,4-dimethoxyphenyl)-imidazo[1,2-a]pyridine], the IC50 was found to be 2.1 µM in assay [1] (setting [7]); 1.8 µM in assay [2] (setting [8]); 1.6 µM in assay [3] (setting [9]); 1.8 µM in assay [4] (setting [10]); 1.6 µM in assay [5] (setting [11]); 0.0322 µM in assay [6] (enzyme assay).

Take `CCOC(=O)CCN1CC=C(c2ccn3cc(-c4cc(Cl)c(OC)cc4OC)nc3c2)CC1` [Example 140, ethyl 3-(4-(2-(5-chloro-2,4-dimethoxyphenyl)imidazo[1,2-a]pyridin-7-yl)-5,6-dihydropyridin-1(2H)-yl)propanoate]: the IC50 in assay [1] (setting [7]) came out at 25 µM; in assay [2] (setting [8]) it was 56 µM; in assay [3] (setting [9]) it was 16 µM; in assay [4] (setting [10]), 27 µM; in assay [5] (setting [11]), 12 µM; in assay [6] (enzyme assay) it was 0.0578 µM.

In the case of `COc1cc(OC)c(-c2cn3cc(Br)c(N4CCNCC4)cc3n2)cc1Cl` [Example 217, 6-bromo-2-(5-chloro-2,4-dimethoxyphenyl)-7-(piperazin-1-yl)-imidazo[1,2-a]pyridine], the IC50 in assay [1] (setting [12]) came out at 7.2 µM; in assay [2] (setting [13]) it was 4.3 µM; in assay [3] (setting [14]), 5.5 µM; in assay [4] (setting [15]) it was 4.9 µM; in assay [5] (setting [16]) it was 3.4 µM; in assay [6] (enzyme assay), 0.0416 µM.

Consider `COc1cc(OC)c(-c2cn3ccc(N4CC[C@H](N)C4)cc3n2)cc1Cl` [Example 47, (S)-1-(2-(5-Chloro-2,4-dimethoxyphenyl)imidazo[1,2-a]pyridin-7-yl)pyrrolidin-3-amine hydrochloride], for which the IC50 in assay [1] (A549, 72 h) stood at 3 µM; in assay [2] (CCD-18Co, 72 h), 3.5 µM; in assay [3] (HCT-116, 72 h), 3.4 µM; in assay [4] (HFL1, 72 h), 2 µM; in assay [5] (PC-14, 72 h), 4.5 µM; in assay [6], 0.00829 µM.

Consider `CNC1CCN(c2ccn3cc(-c4cc(Cl)c(OC)cc4OC)nc3c2)CC1` [Example 24, 1-(2-(5-chloro-2,4-dimethoxyphenyl)imidazo[1,2-a]pyridin-7-yl)-N-methylpiperidin-4-amine hydrochloride], for which the IC50 is 5.5 µM in assay [1] (A549, 72 h); 11 µM in assay [2] (CCD-18Co, 72 h); 4.4 µM in assay [3] (HCT-116, 72 h); 2.7 µM in assay [4] (HFL1, 72 h); 5.7 µM in assay [5] (PC-14, 72 h); 0.00939 µM in assay [6].

Take `COc1cc(OC)c(-c2cn3ccc(N4CCN(C(=O)C5CC5)CC4)cc3n2)cc1Cl` [Example 238, (4-(2-(5-chloro-2,4-dimethoxyphenyl)imidazo[1,2-a]pyridine-7-yl)piperazin-1-yl)(cyclopropyl)methanone]: the IC50 stood at 2.5 µM in assay [1] (setting [12]); 3 µM in assay [2] (setting [13]); 2.9 µM in assay [3] (setting [14]); 2.4 µM in assay [4] (setting [15]); 1.6 µM in assay [5] (setting [16]); 0.00416 µM in assay [6] (enzyme assay).

For `COc1cc(OC)c(-c2cn3ccc(N4CCC(NS(C)(=O)=O)CC4)nc3n2)cc1Cl` [Example 192, N-(1-(2-(5-chloro-2,4-dimethoxyphenyl)imidazo[1,2-a]pyrimidin-7-yl)-piperidin-4-yl)methanesulfonamide], the IC50 in assay [1] (setting [7]) was determined as 10 µM; in assay [2] (setting [8]) it was 5.3 µM; in assay [3] (setting [9]) it was 10 µM; in assay [4] (setting [10]), 5.1 µM; in assay [5] (setting [11]), 10 µM; in assay [6] (enzyme assay), 0.0148 µM.
